Test results: PMC12467382, “Synthesis and Bioevaluation of Chalcones as Broad-Spectrum Antiviral Compounds Against Single-Stranded RNA Viruses” (Biomolecules, 2025)

Columns and labels:
CHO-K1 cells = assay: cells; format: cell-based, Chinese hamster; conditions: for CHOK1 48 h EC10: Chinese hamster; for EC50: Cricetulus griseus, CHO-K1, 48 h, read-out: CHOK1 48 h EC50
Procedure: (§1) A cell growth assay using the MTS reagent was conducted to assess the general toxicity of each chalcone compound. Briefly, cell growth was assayed in sterile 96-well microtiter plates (Costar 3599, Corning Inc., Corning, NY, USA) in the presence of each chalcone. Experiments were conducted in triplicate. In a typical experiment, there are two plates. The first is the control plate, which allows one to assess the starting cell population on the day of drug addition (Day 0). The second plate is the test plate where cells are plated and tested with different drug concentrations on Day 0. For example, either CHO cells or Hs27 cells were plated in a 200 µL volume at 1000 cells/well on both the control and test plates and incubated overnight to allow the cells to adhere. On Day 0, 1 μL of PBS was added to the control plate wells so that their total volume was 201 μL. MTS reagent (Promega Cell Titer 96 Aqueous non-radioactive cell proliferation reagent, Promega, Madison, WI, USA) was added (20 μL) to each well on the control plate, and that plate was incubated for 4 h in a 5% CO2 atmosphere at 37 °C and then read on the plate reader.
(§2) On Day 0, 1 μL of a 200× stock solution of each chalcone was added to the respected well on the test plate, and each condition was tested in triplicate. Drug solutions were prepared in advance in 100% DMSO and dosed so that the final DMSO concentration was 0.5%. For example, 1 μL of chalcone solution was added to the cells plated in each well in 200 μL of media. Of note, the respective chalcone addition occurred after an initial overnight incubation of each cell line in each well to reach Day 0 (the drugging day). After the chalcone was added, the cells were incubated in 5% CO2 for 48 h at 37 °C. After 48 h, the MTS reagent (Promega, Madison, WI, USA) was added (20 μL), and the test plates were incubated for an additional 4 h, and then, absorbance at 490 nm was measured on a BioTek Synergy MX plate reader. […] IC50 values were determined from the corresponding plot of relative absorbance at 490 nm vs. the drug concentration.
(§3) For highly colored materials like the chalcones, it is important to consider the contribution of the compound’s own absorbance to the MTS assay. To correct for the absorbance contribution of the chalcone itself, we measured each chalcone’s absorbance (Chalcone Abs) at 490 nm at the respective concentration (e.g., 10 µM) and subtracted the absorbance of the media background (blank Abs). This net value was then subtracted out of the Day 2 absorbance value to provide the % relative growth via the following equation:(1) % Relative Growth = (Day 2 Abs−Day 2 blank Abs)−Chalcone Abs−blank Abs−(Day 0 Abs−Day 0 blank Abs)/(Day 2 Control Abs −Day 2 blank Abs)−(Day 0 Abs−Day 0 blank Abs) ×100%
With the chalcones in hand, we then evaluated their growth-inhibition properties in Chinese hamster ovary (CHO-K1) cells and human Hs27 fibroblast cells. […] The results are shown in Table 2 along with a SAR summary of our findings in the host Hs27 cells.

Hs27 cells = assay: 48 h MTS growth inhibition assay in Hs27 cells; format: cell-based, human; conditions: for EC50: Homo sapiens, HS27, 48 h, read-out: Hs27 48 h EC50; for Hs27 48 h EC10: highest concentration giving 90% relative new cell growth after 48 h, 0.5% DMSO
Procedure: as §1, with “Briefly, cell growth was assayed in sterile 96-well microtiter plates (Costar 3599, Corning Inc., Corning, NY, USA) in the presence of each chalcone.” left out
as §2, §3
With the chalcones in hand, we then evaluated their growth-inhibition properties in Chinese hamster ovary (CHO-K1) cells and human Hs27 fibroblast cells.

Structure (SMILES) | CHOK1 48 h EC10 (CHO-K1 cells) [µM] | EC50 (CHO-K1 cells) [µM] | EC50 (Hs27 cells) [µM] | Hs27 48 h EC10 (Hs27 cells) [µM]
COc1ccc(Br)cc1/C=C/C(=O)c1c(O)cccc1OC [Chalcone 8f] | 2.5 ± 0.1 | 6.1 ± 0.8 | 2.3 ± 0.2 | 1.4 ± 0.1
COc1cc(/C=C/C(=O)c2c(O)cccc2OCc2ccccc2)cc(OC)c1OC [Chalcone 8z, (2E)-1-(2-Benzloxy-6-Hydroxy-Phenyl)-3-(3,4,5-Trimethoxy-Phenyl)-Propenone] | 3.8 ± 0.4 | 5.8 ± 0.4 | 5 ± 0.2 | 4.0 ± 0.2
CCOc1ccc(Cl)cc1/C=C/C(=O)c1c(O)cccc1OCc1ccccc1 [Chalcone 8p] | 8.2 ± 0.3 | 25.8 ± 1.1 | 19.3 ± 1.9 | 8.7 ± 0.7
CCOc1ccc(Br)cc1/C=C/C(=O)c1c(O)cccc1OCc1ccc(-c2ccccc2)cc1 [Chalcone 8v, (2E)-1-[2-(Biphenyl-4-Ylmethoxy)-6-Hydroxy-Phenyl]3-(5-Bromo-2-Ethoxy-Phenyl)-Propenone] | 3.7 ± 0.3 | > 50 | 18.4 ± 0.9 | 3.4 ± 0.2
COc1ccc(Br)cc1/C=C/C(=O)c1c(O)cccc1OCCC(C)C [Chalcone 8s, (2E)-3-(5-Bromo-2-Methoxy-Phenyl)-1-[2-Hydroxy-6-(3-Methyl-Butoxy)-Phenyl]-Propenone] | 5.4 ± 0.3 | 8.6 ± 0.3 | 13.9 ± 0.5 | 6.9 ± 0.6
CCOc1ccc(Br)cc1/C=C/C(=O)c1c(O)cccc1OCc1ccccc1 [Chalcone 8o] | 7.0 ± 0.4 | 9.9 ± 0.7 | 13.3 ± 1.1 | 8.3 ± 0.5
COc1ccccc1/C=C/C(=O)c1ccccc1O [Chalcone 8a] | 9.3 ± 0.6 | 25.5 ± 2.7 | 20.3 ± 2.1 | 0.6 ± 0.04
COc1ccc(Br)cc1/C=C/C(=O)c1c(O)cccc1OCc1ccc(-c2ccccc2)cc1 [Chalcone 8w, (2E)-1-[2-(Biphenyl-4-Ylmethoxy)-6-Hydroxy-Phenyl]3-(5-Bromo-2-Methoxy-Phenyl)-Propenone] | 6.8 ± 0.3 | 10.1 ± 1 | 8.2 ± 0.5 | 6.5 ± 0.5
COc1ccc(Br)cc1/C=C/C(=O)c1c(O)cccc1OCc1ccccc1 [Chalcone 8l] | 5.2 ± 0.3 | 8.1 ± 1 | 7.8 ± 0.6 | 6.1 ± 0.5
COc1ccc(O)cc1/C=C/C(=O)c1c(O)cccc1OCc1ccccc1 [Chalcone 8x, (2E)-1-(2-Benzloxy-6-Hydroxy-Phenyl)-5-(5-Hydroxy-2-Methoxy-Phenyl)-Propenone] | 3.8 ± 0.4 | 6.3 ± 0.3 | 3.4 ± 0.3 | 1.1 ± 0.07
